Common to all, as to assay: antibiotic activity (MIC)
Type in all cases: cell-based

In one experiment the test system is K. pneumoniae DT. The following applies: Klebsiella pneumoniae. From the text:
(§1) The antibiotic activity of sodium 7α-methoxy-7β-(2-aminothiazol-4-ylacetamido)-3-(1-methyl-1H-tetrazol-5-ylthiomethyl)-3-cephem-4-carboxylate obtained in the reference experiment is shown as follows.

In a further experiment the test system is S. aureus 1840. To be noted: Staphylococcus aureus.
Description: as §1

A further experiment relates to S. aureus Fs 40204. The following applies: Staphylococcus aureus, FS40204.
Description: as §1

The next experiment deals with P. vulgaris GN 4413. To be noted: Proteus vulgaris, GN4413.
Description: as §1

For a further experiment, the system named is E. coli 0-111. To be noted: Escherichia coli, 0111.
Description: as §1

Another experiment concerns E. coli NIHJ. The following applies: Escherichia coli.
Description: as §1

The test system of the next experiment is Serratia TN0024.
Description: as §1

The subject of the next experiment is Ps. aeruginosae PM3. The following applies: Pseudomonas aeruginosa.
Description: as §1

The subject of experiment [1] is Serr. marcescens IFO 12648. The following applies: Serratia marcescens, IFO12648.
Description: as §1

The next experiment relates to E. coli T-7. To be noted: Escherichia coli, T7.
Description: as §1

The next experiment has as its system K. pneumoniae GN 3835. The following applies: Klebsiella pneumoniae, GN3835.
Description: as §1

For the next experiment, the system named is S. aureus 209p. The following applies: Staphylococcus aureus.
Description: as §1

SMILES strings stand for the structures.

In general, MIC refers to the least concentration at which growth counts as inhibited. For `CO[C@@]1(NC(=O)Cc2csc(N)n2)C(=O)N2C(C(=O)O)=C(CSc3nnnn3C)CS[C@@H]21` [Sodium 7α-methoxy-7β-(2-aminothiazol-4-ylacetamido)-3-(1-methyl-1H-tetrazol-5-ylthiomethyl)-3-cephem-4-carboxylate], the MIC against K. pneumoniae DT came out at 0.78 µg/mL; with S. aureus 1840 it was 3.13 µg/mL; in the experiment with S. aureus Fs 40204, 3.13 µg/mL; with P. vulgaris GN 4413, 6.25 µg/mL; in the experiment with E. coli 0-111, 0.78 µg/mL; against E. coli NIHJ it was 1.56 µg/mL. The MIC is 6.25 µg/mL in the experiment with Serratia TN0024; 6.25 µg/mL in the experiment on Ps. aeruginosae PM3; 6.25 µg/mL in experiment [1]; 6.25 µg/mL against E. coli T-7; 1.56 µg/mL in the experiment on K. pneumoniae GN 3835; 1.56 µg/mL in the experiment with S. aureus 209p.

Values taken from US4145540A, “7β-Phosphoramido-7α-methoxycephalosporanic acid derivatives” (Takeda Chemical Industries, Ltd., priority 1975, dated 1979).
